Here are results for 5 molecules from publication PMC9821108, “Biochemical and Structural Analyses Shed Light on the Mechanisms of RadD DNA Binding and Its ATPase from Escherichia coli” (International Journal of Molecular Sciences, 2023).

Data set [1] has as its target T1, RadD (Escherichia coli, UniProt P33919).
T1 construct: recombinant RadD from RadD-pET-28a / RadD-pGEX-6p-1 plasmids expressed in E. coli; full-length with RD1, RD2, ZFD, CTD
T1 sequence (P33919 1-586): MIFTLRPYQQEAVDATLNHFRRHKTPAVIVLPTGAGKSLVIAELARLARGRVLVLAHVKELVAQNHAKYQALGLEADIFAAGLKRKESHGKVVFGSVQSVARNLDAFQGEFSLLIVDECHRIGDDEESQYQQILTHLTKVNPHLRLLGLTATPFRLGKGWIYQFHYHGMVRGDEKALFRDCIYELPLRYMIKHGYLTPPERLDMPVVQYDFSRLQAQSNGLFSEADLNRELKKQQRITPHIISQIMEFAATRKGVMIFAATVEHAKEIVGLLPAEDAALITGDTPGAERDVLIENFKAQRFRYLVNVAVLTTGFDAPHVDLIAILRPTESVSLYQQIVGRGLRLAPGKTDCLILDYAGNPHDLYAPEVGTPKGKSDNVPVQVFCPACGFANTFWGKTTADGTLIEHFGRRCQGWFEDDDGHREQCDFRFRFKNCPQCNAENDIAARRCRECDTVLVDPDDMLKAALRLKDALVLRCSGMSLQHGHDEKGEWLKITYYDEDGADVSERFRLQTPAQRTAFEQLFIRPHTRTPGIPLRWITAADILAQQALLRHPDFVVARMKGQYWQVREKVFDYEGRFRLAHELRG
The data set can be described thus: X-ray crystal structure, […] Å. Type of data set: binding. As to conditions: co-crystallised with 5 mM ATP and 5 mM MgCl2, ATP hydrolysed to ADP in the crystal; site between RD1 and RD2.

For data set [2], the target named is RadD CTD (Escherichia coli) (UniProt P33919). The data set can be described thus: EMSA. As to conditions: 20 mM Bis-Tris pH 6.5, 50 mM NaCl, 15% glycerol, 10 mM beta-mercaptoethanol, 37 C 30 min, 33 nM HJ, 0-20 uM RadD; 8% native PAGE in 0.5x TBE; text says ….
In data set [3] the target is RadD ZFD (Escherichia coli) (UniProt P33919). The experiment in a line: EMSA. As to conditions: 20 mM Bis-Tris pH 6.5, 50 mM NaCl, 15% glycerol, 10 mM beta-mercaptoethanol, 37 C 30 min, 33 nM HJ, 0-20 uM RadD; 8% native PAGE in 0.5x TBE; text says ….
Data set [4] has as its target T2, RadD (Escherichia coli, UniProt P33919, K68A).
T2 construct: recombinant RadD from RadD-pET-28a / RadD-pGEX-6p-1 plasmids expressed in E. coli; full-length with RD1, RD2, ZFD, CTD
The data set can be described thus: malachite green phosphate release ATPase assay. Type of data set: biochemical. As to conditions: 0.375 μM enzyme, 1 mM ATP; buffer as above.

Data set [5] addresses T3, RadD (Escherichia coli, UniProt P33919, R343A).
T3 construct: recombinant RadD from RadD-pET-28a / RadD-pGEX-6p-1 plasmids expressed in E. coli; full-length with RD1, RD2, ZFD, CTD
The data set can be described thus: malachite green phosphate release ATPase assay. Particulars: 0.375 μM enzyme, 1 mM ATP; buffer as above. Format: biochemical.

The target in data set [6] is T4, RadD (Escherichia coli, UniProt P33919, R6A).
T4 construct: recombinant RadD from RadD-pET-28a / RadD-pGEX-6p-1 plasmids expressed in E. coli; full-length with RD1, RD2, ZFD, CTD
T4 sequence (P33919 whole entry R6A): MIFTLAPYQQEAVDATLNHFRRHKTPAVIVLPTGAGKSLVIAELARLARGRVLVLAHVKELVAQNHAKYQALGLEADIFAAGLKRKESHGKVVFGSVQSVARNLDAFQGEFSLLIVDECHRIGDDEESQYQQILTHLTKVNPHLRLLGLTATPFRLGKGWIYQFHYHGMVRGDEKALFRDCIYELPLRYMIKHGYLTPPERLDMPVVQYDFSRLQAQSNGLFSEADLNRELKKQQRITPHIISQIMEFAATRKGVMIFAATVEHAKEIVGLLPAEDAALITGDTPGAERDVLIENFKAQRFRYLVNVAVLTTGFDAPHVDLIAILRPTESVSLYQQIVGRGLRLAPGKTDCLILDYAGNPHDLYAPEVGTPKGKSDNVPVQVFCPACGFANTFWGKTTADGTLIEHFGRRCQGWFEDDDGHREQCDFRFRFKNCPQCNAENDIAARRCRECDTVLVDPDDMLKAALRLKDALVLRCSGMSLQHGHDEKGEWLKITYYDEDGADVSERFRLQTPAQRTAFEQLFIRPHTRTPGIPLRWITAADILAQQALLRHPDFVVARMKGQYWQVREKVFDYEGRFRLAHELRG
The data set can be described thus: malachite green phosphate release ATPase assay. Particulars: 0.375 μM enzyme, 1 mM ATP; buffer as above. Format: biochemical.

Data set [7] deals with T5, RadD (Escherichia coli, UniProt P33919, G36E).
T5 construct: recombinant RadD from RadD-pET-28a / RadD-pGEX-6p-1 plasmids expressed in E. coli; full-length with RD1, RD2, ZFD, CTD
T5 sequence (P33919 whole entry G36E): as the sequence (P33919 whole entry R6A) above, with A6R, G36E counted along it
The experiment in a line: malachite green phosphate release ATPase assay. Type of data set: biochemical. Particulars: 0.375 μM enzyme, 1 mM ATP; buffer as above.

Data set [8] addresses T6, RadD (Escherichia coli, UniProt P33919, G34E).
T6 construct: recombinant RadD from RadD-pET-28a / RadD-pGEX-6p-1 plasmids expressed in E. coli; full-length with RD1, RD2, ZFD, CTD
The data set can be described thus: malachite green phosphate release ATPase assay. Format: biochemical. As to conditions: 0.375 μM enzyme, 1 mM ATP; buffer as above.

Data set [9] has as its target T7, RadD (Escherichia coli, UniProt P33919, K37A).
T7 construct: recombinant RadD from RadD-pET-28a / RadD-pGEX-6p-1 plasmids expressed in E. coli; full-length with RD1, RD2, ZFD, CTD
The experiment in a line: malachite green phosphate release ATPase assay. As to conditions: 0.375 μM enzyme, 1 mM ATP; buffer as above. Type of data set: biochemical.

For data set [10], the target named is T8, RadD (Escherichia coli, UniProt P33919, D117R).
T8 construct: recombinant RadD from RadD-pET-28a / RadD-pGEX-6p-1 plasmids expressed in E. coli; full-length with RD1, RD2, ZFD, CTD
T8 sequence (P33919 whole entry D117R): as the sequence (P33919 whole entry R6A) above, with A6R, D117R counted along it
The experiment in a line: malachite green phosphate release ATPase assay. As to conditions: 0.375 μM enzyme, 1 mM ATP; buffer as above. Format: biochemical.

Data set [11] concerns the target T1, RadD. The experiment in a line: X-ray crystal structure, […] Å. Particulars: co-crystallised with 5 mM ATPγS, no Mg added; site between RD1 and RD2. Format: binding.
Substrate in data set [12]: Nc1ncnc2c1ncn2[C@@H]1O[C@H](COP(=O)(O)OP(=O)(O)OP(=O)(O)O)[C@@H](O)[C@H]1O
The data set can be described thus: malachite green phosphate release ATPase assay. Type of data set: biochemical, Escherichia coli. As to conditions: 0.4 μM RadD, 20 mM Hepes pH 7.5, 150 mM NaCl, 3 mM MgCl2, 20 °C, 30 min, no DNA or SSB.

T3 sequence (P33919 whole entry R343A): as the sequence (P33919 whole entry R6A) above, with A6R, R343A counted along it
T6 sequence (P33919 whole entry G34E): as the sequence (P33919 whole entry R6A) above, with A6R, G34E counted along it
T7 sequence (P33919 whole entry K37A): as the sequence (P33919 whole entry R6A) above, with A6R, K37A counted along it
T2 sequence (P33919 whole entry K68A): as the sequence (P33919 whole entry R6A) above, with A6R, K68A counted along it

Take `Nc1ncnc2c1ncn2[C@@H]1O[C@H](COP(=O)(O)OP(=O)(O)O)[C@@H](O)[C@H]1O` [ADP]: the “X-ray crystal structure, 2.7 Å” value on RadD [1] is recorded as “RadD/ADP PDB: 8H5Y”.
“CCGCTACCAGTGATCACCAATGGATTGCTAGGACATCTTTGCCCACCTGCAGGTTCACCC / TGGGTGAACCTGCAGGTGGGCAAAGATGTCCTAGCAATCCATTGTCTATGACGTCAAGCTC / GAGCTTGACGTCATAGACAATGGATTGCTAGGACATCTTTGCCGTCTTGTCAATATCGGC / TGCCGATATTGACAAGACGGCAAAGATGTCCTAGCAATCCATTGGTGATCACTGGTAGCGG [Holliday junction (HJ)]”: the binding signal was 47 % of WT in data set [2] and 43 % of WT in [3].
`Nc1ncnc2c1ncn2[C@@H]1O[C@H](COP(=O)(O)OP(=O)(O)OP(=O)(O)O)[C@@H](O)[C@H]1O` [ATP]: the ATPase activity result on RadD [4] was “The ATPase activity of mutant K68A is three times that of the wild-type”; at RadD [5] it was “mutant G34E, G36E, K37A, D117R, and R343A lost their ATPase activity”; on RadD [6], “mutants R6A and N9A were not significantly different from the wild-type”; on RadD [7], “mutant G34E, G36E, K37A, D117R, and R343A lost their ATPase activity”; at RadD [8] it was “mutant G34E, G36E, K37A, D117R, and R343A lost their ATPase activity”; on RadD [9], “mutant G34E, G36E, K37A, D117R, and R343A lost their ATPase activity”. For the same molecule, on RadD [10], the ATPase activity result was “mutant G34E, G36E, K37A, D117R, and R343A lost their ATPase activity”.
For `Nc1ncnc2c1ncn2[C@@H]1O[C@H](COP(=O)(O)OP(=O)(O)OP(O)(O)=S)[C@@H](O)[C@H]1O` [ATPγS], the “X-ray crystal structure, 3.0 Å” value on RadD [11] is given as “RadD/ATPγS PDB: 8H5Z”.

B1: RadD (Escherichia coli K-12) (protein)
chain: MIFTLRPYQQEAVDATLNHFRRHKTPAVIVLPTGAGKSLVIAELARLARGRVLVLAHVKELVAQNHAKYQALGLEADIFAAGLKRKESHGKVVFGSVQSVARNLDAFQGEFSLLIVDECHRIGDDEESQYQQILTHLTKVNPHLRLLGLTATPFRLGKGWIYQFHYHGMVRGDEKALFRDCIYELPLRYMIKHGYLTPPERLDMPVVQYDFSRLQAQSNGLFSEADLNRELKKQQRITPHIISQIMEFAATRKGVMIFAATVEHAKEIVGLLPAEDAALITGDTPGAERDVLIENFKAQRFRYLVNVAVLTTGFDAPHVDLIAILRPTESVSLYQQIVGRGLRLAPGKTDCLILDYAGNPHDLYAPEVGTPKGKSDNVPVQVFCPACGFANTFWGKTTADGTLIEHFGRRCQGWFEDDDGHREQCDFRFRFKNCPQCNAENDIAARRCRECDTVLVDPDDMLKAALRLKDALVLRCSGMSLQHGHDEKGEWLKITYYDEDGADVSERFRLQTPAQRTAFEQLFIRPHTRTPGIPLRWITAADILAQQALLRHPDFVVARMKGQYWQVREKVFDYEGRFRLAHELRG
notes: recombinant RadD from RadD-pET-28a / RadD-pGEX-6p-1 plasmids expressed in E. coli; full-length with RD1, RD2, ZFD, CTD
For the molecule B1, in [12], the Km was 3.48 mM.
